Results: ChEMBL document CHEMBL2407043, “Hydantoin based inhibitors of MMP13--discovery of AZD6605” (Bioorg Med Chem Lett, 2013)
≈ marks a conversion by molar mass, not a printed value.

Experiments:
Cytochrome P450 3A4 = Cytochrome P450 3A4 (Homo sapiens, UniProt P08684); experiment: Inhibition of human CYP3A4; assay type: ADME
[1] = Thermodynamic solubility of the compound in phosphate buffer at pH 7.4 at 25 degC after 24 hrs; conditions: read-out: Therm_solubility
[2] = Apparent permeability across basolateral to apical side in human Caco2 cells at 10 uM; assay type: ADME, cell-based; conditions: Caco-2
physchem = conditions: buffer, pH 7.4
Rattus norvegicus [3] = species: Rattus norvegicus; experiment: Toxicity in rat assessed as fibrodysplasia after 28 days; assay type: organism-based; conditions: in vivo, 672 h
Rattus norvegicus [4] = species: Rattus norvegicus; experiment: Toxicity in rat assessed as change in clinical chemistry or hematological parameters after 28 days; assay type: organism-based; conditions: in vivo, 672 h
Cytochrome P450 2C9 = Cytochrome P450 2C9 (Homo sapiens, UniProt P11712); experiment: Inhibition of human CYP2C9; assay type: ADME
Cytochrome P450 2C9, sequence (P11712 whole entry): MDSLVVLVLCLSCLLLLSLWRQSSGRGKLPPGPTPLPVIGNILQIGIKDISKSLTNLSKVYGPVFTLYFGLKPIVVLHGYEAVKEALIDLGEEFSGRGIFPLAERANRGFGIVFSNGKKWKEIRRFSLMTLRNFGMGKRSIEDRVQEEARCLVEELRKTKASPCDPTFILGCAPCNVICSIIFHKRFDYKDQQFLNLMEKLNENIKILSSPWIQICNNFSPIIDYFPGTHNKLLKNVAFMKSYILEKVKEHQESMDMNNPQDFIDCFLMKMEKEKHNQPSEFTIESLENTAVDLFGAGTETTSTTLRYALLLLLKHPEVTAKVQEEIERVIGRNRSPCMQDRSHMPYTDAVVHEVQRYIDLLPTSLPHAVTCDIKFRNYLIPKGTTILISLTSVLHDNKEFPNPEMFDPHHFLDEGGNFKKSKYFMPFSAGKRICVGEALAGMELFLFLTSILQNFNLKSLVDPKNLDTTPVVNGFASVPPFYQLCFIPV

[5] = Fraction unbound in dog plasma; assay type: ADME, cell-free, Canis lupus familiaris
Cytochrome P450 2D6 = Cytochrome P450 2D6 (Homo sapiens, UniProt P10635); experiment: Inhibition of human CYP2D6; assay type: ADME
Cytochrome P450 2D6, sequence (P10635 whole entry): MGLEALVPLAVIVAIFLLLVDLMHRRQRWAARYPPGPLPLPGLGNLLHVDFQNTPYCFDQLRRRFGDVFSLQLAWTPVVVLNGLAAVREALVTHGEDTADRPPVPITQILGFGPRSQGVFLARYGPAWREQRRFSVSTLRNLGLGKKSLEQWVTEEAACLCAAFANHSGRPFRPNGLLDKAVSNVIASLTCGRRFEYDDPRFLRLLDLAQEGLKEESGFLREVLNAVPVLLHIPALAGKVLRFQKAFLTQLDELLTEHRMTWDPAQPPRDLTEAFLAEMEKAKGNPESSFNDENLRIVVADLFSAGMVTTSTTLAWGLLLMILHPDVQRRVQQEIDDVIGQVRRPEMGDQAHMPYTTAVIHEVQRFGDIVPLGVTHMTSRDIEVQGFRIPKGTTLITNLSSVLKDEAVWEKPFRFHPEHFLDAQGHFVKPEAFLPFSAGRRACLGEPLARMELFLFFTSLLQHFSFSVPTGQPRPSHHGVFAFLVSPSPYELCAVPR

[6] = Volume of distribution at steady state in dog at 0.5 mg/kg, iv and 1 mg/kg, po; assay type: ADME, organism-based, Canis lupus familiaris; conditions: in vivo, read-out: Vdss
in vitro [7] = conditions: human, Caco-2
Rattus norvegicus [8] = species: Rattus norvegicus; experiment: Toxicity in rat assessed as change in food and water consumption after 28 days; assay type: organism-based; conditions: in vivo, 672 h
[9] = Clearance in rat at 2 mg/kg, iv and 5 mg/kg, po; assay type: ADME, organism-based; conditions: in vivo
[10] = Volume of distribution at steady state in rat at 2 mg/kg, iv and 5 mg/kg, po; assay type: ADME, organism-based; conditions: in vivo, read-out: Vdss
[11] = Clearance in dog at 0.5 mg/kg, iv and 1 mg/kg, po; assay type: ADME, organism-based, Canis lupus familiaris; conditions: in vivo
Cavia porcellus = species: Cavia porcellus; experiment: animal or person; conditions: Dunkin Hartley, sc, 2016 h, read-out: INH
[12] = biological target: Matrix metalloproteinase-14 (Homo sapiens, UniProt P50281)
in vitro [13] = conditions: human, liver microsomes
[14] = Fraction unbound in rat plasma; assay type: ADME, cell-free
[15] = Genotoxicity in mouse lymphoma cells; assay type: toxicity, cell-based
[16] = Solubility of compound in fasted state simulated intestinal fluid; assay type: physicochemical
Rattus norvegicus [17] = species: Rattus norvegicus; experiment: Toxicity in rat assessed as mortality after 28 days; assay type: organism-based; conditions: in vivo, 672 h
Cytochrome P450 1A2 = biological target: T1, Cytochrome P450 1A2 (Homo sapiens, UniProt P05177); experiment: Inhibition of human CYP1A2; assay type: ADME
T1 sequence (P05177 whole entry): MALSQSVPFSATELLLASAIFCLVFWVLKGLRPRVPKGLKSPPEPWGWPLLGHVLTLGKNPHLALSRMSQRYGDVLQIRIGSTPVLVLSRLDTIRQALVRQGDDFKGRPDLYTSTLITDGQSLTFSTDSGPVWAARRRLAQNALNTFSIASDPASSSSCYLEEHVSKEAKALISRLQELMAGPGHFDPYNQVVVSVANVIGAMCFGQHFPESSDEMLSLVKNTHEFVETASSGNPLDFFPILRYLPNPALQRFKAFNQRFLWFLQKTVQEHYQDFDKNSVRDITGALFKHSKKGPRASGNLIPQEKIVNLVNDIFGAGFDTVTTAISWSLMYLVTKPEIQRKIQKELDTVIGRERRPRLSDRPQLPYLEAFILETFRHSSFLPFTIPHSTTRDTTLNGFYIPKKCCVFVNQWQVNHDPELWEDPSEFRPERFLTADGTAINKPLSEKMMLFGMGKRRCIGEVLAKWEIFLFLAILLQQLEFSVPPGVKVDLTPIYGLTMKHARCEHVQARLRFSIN

[18] = Oral bioavailability in rat at 5 mg/kg; assay type: ADME, organism-based; conditions: in vivo
Rattus norvegicus [19] = species: Rattus norvegicus; experiment: Toxicity in rat assessed as change in connective tissue after 28 days; assay type: organism-based; conditions: in vivo, 672 h
Salmonella typhimurium = experiment: Mutagenic activity in Salmonella typhimurium by Ames assay; assay type: toxicity, organism-based; conditions: salmonella enterica subsp. enterica serovar typhimurium
[20] = Half life in rat at 2 mg/kg, iv and 5 mg/kg, po; assay type: ADME, organism-based; conditions: in vivo
[21] = Fraction unbound in human plasma; assay type: ADME, cell-free
Rattus norvegicus [22] = species: Rattus norvegicus; experiment: Toxicity in rat assessed as change in body weight after 28 days; assay type: organism-based; conditions: in vivo, 672 h
[23] = Half life in dog at 0.5 mg/kg, iv and 1 mg/kg, po; assay type: ADME, organism-based, Canis lupus familiaris; conditions: in vivo
[24] = Intrinsic clearance in human hepatocytes measured per 10^6 cells; assay type: ADME, cell-based, Hepatocyte; conditions: read-out: CLH
[25] = Oral bioavailability in dog at 1 mg/kg; assay type: ADME, organism-based, Canis lupus familiaris; conditions: in vivo
Cytochrome P450 2C19 = Cytochrome P450 2C19 (Homo sapiens, UniProt P33261); experiment: Inhibition of human CYP2C19; assay type: ADME
Cytochrome P450 2C19, sequence (P33261 whole entry): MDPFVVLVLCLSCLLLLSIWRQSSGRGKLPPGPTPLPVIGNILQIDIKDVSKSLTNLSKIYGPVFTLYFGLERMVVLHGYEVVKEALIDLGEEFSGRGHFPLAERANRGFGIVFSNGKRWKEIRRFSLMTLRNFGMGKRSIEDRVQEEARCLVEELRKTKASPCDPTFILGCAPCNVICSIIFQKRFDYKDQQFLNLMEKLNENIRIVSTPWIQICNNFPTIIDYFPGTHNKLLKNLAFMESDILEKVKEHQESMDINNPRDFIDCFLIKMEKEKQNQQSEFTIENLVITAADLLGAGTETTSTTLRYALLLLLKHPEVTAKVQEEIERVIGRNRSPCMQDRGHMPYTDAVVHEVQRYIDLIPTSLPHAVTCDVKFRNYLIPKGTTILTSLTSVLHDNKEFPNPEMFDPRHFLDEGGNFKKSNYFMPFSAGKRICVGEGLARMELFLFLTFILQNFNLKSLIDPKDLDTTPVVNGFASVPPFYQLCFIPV

Cytochrome P450 3A4, sequence (P08684 whole entry): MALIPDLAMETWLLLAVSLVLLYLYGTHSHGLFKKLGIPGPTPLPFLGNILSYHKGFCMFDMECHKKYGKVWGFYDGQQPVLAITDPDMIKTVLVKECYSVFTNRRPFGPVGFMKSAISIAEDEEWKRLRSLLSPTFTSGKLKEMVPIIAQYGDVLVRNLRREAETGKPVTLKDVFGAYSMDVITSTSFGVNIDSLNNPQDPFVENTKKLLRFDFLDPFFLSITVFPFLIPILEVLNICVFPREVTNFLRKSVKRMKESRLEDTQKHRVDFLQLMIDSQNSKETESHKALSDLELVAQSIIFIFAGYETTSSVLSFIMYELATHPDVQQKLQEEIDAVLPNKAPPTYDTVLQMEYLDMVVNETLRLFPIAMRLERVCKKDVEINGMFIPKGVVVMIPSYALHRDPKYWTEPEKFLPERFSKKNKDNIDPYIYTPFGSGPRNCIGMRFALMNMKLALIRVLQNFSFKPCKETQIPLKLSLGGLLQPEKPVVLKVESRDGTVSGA

For C[C@]1(CS(=O)(=O)N2CCC(Oc3ccc(OC(F)(F)C(F)F)cc3)CC2)NC(=O)NC1=O, the IC50 (Cytochrome P450 3A4) was > 10 µM, the solubility thermodynamic at 24 h [1] was 6.8 µM (≈ 3.29 µg/mL) and the Papp B→A at 10 µM [2] was 52 ×10⁻⁶ cm/s. The logD (physchem) was 2, the Activity (Rattus norvegicus [3]) was “Non-toxic” and the Activity (Rattus norvegicus [4]) was “Non-toxic”. The IC50 (Cytochrome P450 2C9) was > 10 µM, the fraction unbound [5] was 0.05 and the IC50 (Cytochrome P450 2D6) was > 10 µM. The Vd [6] was 0.6 L/kg, the Papp A→B at 10 µM (in vitro [7]) was 21 ×10⁻⁶ cm/s and the Activity (Rattus norvegicus [8]) was “Non-toxic”. The clearance [9] was 0.4 mL/min/kg, the Vd [10] was 0.6 L/kg and the clearance [11] was 0.2 mL/min/kg. The inhibition in vivo at 11 mg/kg/day (Cavia porcellus) was 104%, the IC50 [12] was 2.22 µM and the microsomal CLint (in vitro [13]) was < 2 µL/min/mg. For the same compound, the fraction unbound [14] was 0.03, the Activity [15] was “Non-toxic” and the solubility [16] was 14.9 µM (≈ 7.2 µg/mL). The Activity (Rattus norvegicus [17]) was “Non-toxic”, the IC50 (Cytochrome P450 1A2) was > 10 µM and the bioavailability [18] was 64%. The Activity (Rattus norvegicus [19]) was “Non-toxic”, the Activity (Salmonella typhimurium) was “Non-toxic” and the half-life [20] was 16 h. The fraction unbound [21] was 0.05, the Activity (Rattus norvegicus [22]) was “Non-toxic” and the half-life [23] was 35 h. For the same compound, the hepatocyte CLint [24] was < 2 µL/min/1e6 cells, the bioavailability [25] was 40% and the IC50 (Cytochrome P450 2C19) was > 10 µM.
